US10227323B2, “Glucosylceramide synthase inhibitors for the treatment of diseases” (BIOMARIN PHARMACEUTICAL INC., priority 2013, dated 2019)

The molecules below were run against T1, GCS (Canis lupus familiaris, UniProt A0A8I3MXG6) (assay: Assay 1: GCS Enzymatic Assay (MDCK cell lysate, C6-NBD-Ceramide, LC/MS)). Conditions: Table 3; MDCK cell lysate; read-out: IC50 (nM) generated from Assay 1.
T1 sequence (A0A8I3MXG6 1-394): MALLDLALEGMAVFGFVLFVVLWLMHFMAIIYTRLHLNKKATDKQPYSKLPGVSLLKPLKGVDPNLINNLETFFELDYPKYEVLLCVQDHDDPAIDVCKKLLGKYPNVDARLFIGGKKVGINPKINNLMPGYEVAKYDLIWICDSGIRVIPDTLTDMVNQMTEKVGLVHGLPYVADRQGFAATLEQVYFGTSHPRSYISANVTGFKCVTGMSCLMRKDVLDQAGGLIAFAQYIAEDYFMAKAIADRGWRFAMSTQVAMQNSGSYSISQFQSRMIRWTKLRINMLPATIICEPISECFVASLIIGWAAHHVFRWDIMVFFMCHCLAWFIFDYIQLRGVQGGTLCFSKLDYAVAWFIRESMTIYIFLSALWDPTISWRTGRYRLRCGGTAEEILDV
Type: biochemical, canine
In short: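 LC/MS/MS measurement of glucosylceramide and NBD-ceramide after a 1 h, 37 °C reaction with 100 μM UDP-glucose and 10 μM C6-NBD-ceramide gave IC50s or percent inhibition.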

`O=C(N[C@H](CN1CCCC1)[C@H](O)c1ccc(OC2CC2)c(F)c1)C(=O)c1ccc(C2CC2)cc1` [Example 395, N-((1R,2R)-1-(4-cyclopropoxy-3-fluorophenyl)-1-hydroxy-3-(pyrrolidin-1-yl)propan-2-yl)-2-(4-cyclopropylphenyl)-2-oxoacetamide] and `O=C(N[C@H](CN1CCCC1)[C@H](O)c1ccc(OC2CC2)c(Cl)c1)C(=O)c1ccc(-n2cccn2)cc1` [Example 400, 2-(4-(1H-pyrazol-1-yl)phenyl)-N-((1R,2R)-1-(3-chloro-4-cyclopropoxyphenyl)-1-hydroxy-3-(pyrrolidin-1-yl)propan-2-yl)-2-oxoacetamide] cannot be ordered by IC50: under 50 nM for the first, under 50 nM for the second.

`O=C(N[C@H](CN1CCCC1)[C@H](O)c1ccc(OC2CC2)c(Cl)c1)C(F)(F)c1ccc(-c2ccc(Cl)s2)cc1` [Example 396, N-((1R,2R)-1-(3-chloro-4-cyclopropoxyphenyl)-1-hydroxy-3-(pyrrolidin-1-yl)propan-2-yl)-2-(4-(5-chlorothiophen-2-yl)phenyl)-2,2-difluoroacetamide] and `O=C(N[C@H](CN1CCCC1)[C@H](O)c1ccc(OC2CC2)c(F)c1)C(F)(F)c1ccc(-c2ccc(Cl)s2)cc1` [Example 397, 2-(4-(5-chlorothiophen-2-yl)phenyl)-N-((1R,2R)-1-(4-cyclopropoxy-3-fluorophenyl)-1-hydroxy-3-(pyrrolidin-1-yl)propan-2-yl)-2,2-difluoroacetamide] cannot be ordered by IC50: under 50 nM for the first, under 50 nM for the second.

First: O=C(N[C@H](CN1CCCC1)[C@H](O)c1cc(F)c2c(c1)OCCO2)C(F)(F)c1ccc(-c2ccc(Cl)s2)cc1 [Example 398, 2-(4-(5-chlorothiophen-2-yl)phenyl)-2,2-difluoro-N-((1R,2R)-1-(8-fluoro-2,3-dihydrobenzo[b][1,4]dioxin-6-yl)-1-hydroxy-3-(pyrrolidin-1-yl)propan-2-yl)acetamide]
Second: O=C(N[C@H](CN1CCCC1)[C@H](O)c1ccc(OC2CC2)cc1)C(F)(F)CCc1ccc2cc(Cl)ccc2c1 [Example 402, 4-(6-chloronaphthalen-2-yl)-N-((1R,2R)-1-(4-cyclopropoxyphenyl)-1-hydroxy-3-(pyrrolidin-1-yl)propan-2-yl)-2,2-difluorobutanamide]
The IC50 of the first is lower: under 50 nM for the first, 50 to 5000 nM for the second. The first is the more potent here.

First: O=C(N[C@H](CN1CCCC1)[C@H](O)c1ccc(OC2CC2)cc1)C(=O)c1cc2ccc(Cl)cc2s1 [Example 399, 2-(6-chlorobenzo[b]thiophen-2-yl)-N-((1R,2R)-1-(4-cyclopropoxyphenyl)-1-hydroxy-3-(pyrrolidin-1-yl)propan-2-yl)-2-oxoacetamide]
Second: O=C(N[C@H](CN1CCCC1)[C@H](O)c1ccc(OC(F)F)cc1)C(=O)c1cc2ccc(Cl)cc2s1 [Example 405, 2-(6-chlorobenzo[b]thiophen-2-yl)-N-((1R,2R)-1-(4-(difluoromethoxy)phenyl)-1-hydroxy-3-(pyrrolidin-1-yl)propan-2-yl)-2-oxoacetamide]
The IC50 of the first is lower: under 50 nM for the first, 50 to 5000 nM for the second. The first is the more potent here.

First: C#Cc1ccc(C(=O)C(=O)N[C@H](CN2CCCC2)[C@H](O)c2ccc(OC3CC3)cc2)cc1 [Example 401, N-((1R,2R)-1-(4-cyclopropoxyphenyl)-1-hydroxy-3-(pyrrolidin-1-yl)propan-2-yl)-2-(4-ethynylphenyl)-2-oxoacetamide]
Second: O=C(N[C@H](CN1CCCC1)[C@H](O)c1ccc(OC2CC2)c(Cl)c1)C(=O)c1ccc(-n2nccn2)cc1 [Example 403, 2-(4-(2H-1,2,3-triazol-2-yl)phenyl)-N-((1R,2R)-1-(3-chloro-4-cyclopropoxyphenyl)-1-hydroxy-3-(pyrrolidin-1-yl)propan-2-yl)-2-oxoacetamide]
The IC50 of the first is higher: 50 to 5000 nM for the first, under 50 nM for the second.

`CN(C(=O)C(=O)c1ccc(-c2ccc(F)cc2)cc1)[C@H](CN1CCCC1)[C@H](O)c1ccc(OC2CC2)c(F)c1` [Example 404, N-((1R,2R)-1-(4-cyclopropoxy-3-fluorophenyl)-1-hydroxy-3-(pyrrolidin-1-yl)propan-2-yl)-2-(4′-fluoro-[1,1′-biphenyl]-4-yl)-N-methyl-2-oxoacetamide] showed an IC50 of under 50 nM.

Same assay, conditions: Table 3; values marked *; MDCK cell lysate

For `O=C(N[C@H](CN1CCCC1)[C@H](O)c1ccc(OC2CC2)c(Cl)c1)/C(CCc1ccc2cc(F)ccc2c1)=N/O` [Example 406, (E)-N-((1R,2R)-1-(3-chloro-4-cyclopropoxyphenyl)-1-hydroxy-3-(pyrrolidin-1-yl)propan-2-yl)-4-(6-fluoronaphthalen-2-yl)-2-(hydroxyimino)butanamide], the “% inhibition generated from Assay 1” value was “A* (the compound had a % inhibition of a percent inhibition of greater than or equal to about 50%)”.
